Reference: US12612388B2, “Receptor-interacting protein 1 inhibitors including piperazine heterocyclic amide ureas” (SIRONAX LTD., priority 2020, dated 2026)

tested on: HT-29 cells; assay: Cellular RIP1 inhibitory activity: necroptosis of HT-29 cells induced by TNF-α/SMAC mimetic/zVAD-FMK, CellTiter-Glo viability; type: cell-based; conditions: Homo sapiens; HT-29 cells; TNF-α 10 ng/ml, SMAC mimetic 6 μM, zVAD-FMK 10 μM; 20 hours; geometric mean, 10 points, duplicates; read-out: EC50 (Cell activity; Necrosis or Necroptosis Inhibitory Activity)
Method: In Table 2, activity is provided as follows: +++=0.1 nM≤EC50<100 nM; ++=100 nM≤EC50K<1000 nM; +=1000 nM≤EC50K<10000 nM.
Compounds 1-67 (denoted as Compound Nos. 1 through 67 in Table 1) of the disclosure were tested for binding and cellular RIP1 inhibitory activity following the experimental procedures described below.
Cell line: HT-29 (ATCC® HTB-38™)
Culture medium: McCOY's 5A, Gibco, Cat No. 16600-082
DMSO: Sigma, Cat No. 67-68-5, 1 L
Assay plate: Corning #3903
Compound dilution plate: Corning #3357
Inducers: TNFα, GenScript, Cat No. Z01001-50,
SmacM, Cat. No., HY-15989, MedChemExpress (MCE)
Z_VAD FMK, TargetMol, T6013
Cell Titer-Glo® Luminescent Cell Viability Assay Kit: Promega, Cat No. G7573
1. HT-29 cells were checked every day to make sure that they were healthy and growing as expected. They were subjected to sub-culturing when they were approximately 80% confluent.
2. The culture medium, McCOY's 5A medium (Gibco, Cat No. 16600-082) with 10% fetal bovine serum or FBS (Gibco, Cat No. 10099-141C), was pre-warmed in a 37° C. water bath for at least 30 min.
3. When the cells had reached a desired level of confluency of 80% in a T75 flask, the medium was aspirated, and the cells were washed with warm phosphate buffered saline or PBS two times.
4. 2-3 ml fresh warm trypsin (Gibco, Cat No. 25200-056) solution was added to the washed cells. The flask with the cells was transferred to a 37° C. incubator.
5. After 5 minutes, the side of the flask was tapped, and the flask was examined under a microscope for detachment of the cells to the flask. If necessary, the cells were kept in the incubator for an additional 5-10 minutes, with occasional tapping, until lifting was complete.
6. The trypsin reaction was neutralized by transferring 6-9 ml cell culture medium to sterile 15 ml conical tubes, and by centrifuging the cell culture at 300×g for 7 minutes to pellet the cells (supernatant decanted).
7. The cells were resuspended in fresh cell culture medium and the cell counting was performed using a hemocytometer.
8. 100 μl of the resuspended cell culture medium containing ˜5,000 cells were transferred into each well of the sterile 96-well cell culture plate (Corning 3903) and cultured overnight at 37° C. with 5% CO2.
Compound Titration and Treatment
1. All test compounds were dissolved in DMSO (Dimethyl sulfoxide) to create a 20 mM stock.
2. 3 μl of each compound 20 mM stock was mixed with 27 μl DMSO, and the compound solution was further diluted at a titration ratio of 1:3 (20 μl compound solution+40 μl DMSO) till the 10 points end.
3. All culture medium was removed from assay plates filled with HT-29 cell cultures. The cells were then washed with 1 PBS, and resuspended in fresh, FBS-free McCOY's 5A medium containing a cocktail of TNF-α (10 ng/ml), a SMAC mimetic compound (6 μM) and Z-VAD-fluoromethylketone or zVAD-FMK (10 μM) to stimulate the HT-29 cells to increase RIP1 kinase levels and necroptosis.
4. 0.5 μL of the diluted compound solution was added to the corresponding 96-well assay plates.
5. The assay plates were incubated for 20 hours at 37° C. with 5% CO2.
1. The CellTiter-Glo® Luminescent Cell Viability Assay was employed to detect the ATP levels of viable HT-29 cells.
2. The CellTiter-Glo® buffer and the lyophilized substrate were equilibrated to room temperature prior to use.
3. The CellTiter-Glo® substrate was resuspended with CellTiter-Glo® buffer, then mixed by gently vortexing to obtain a homogeneous solution.
4. 20 μl the enzyme/substrate mixture was transferred by multi-channel pipetting into 96-well assay plates.
5. The assay plates were placed on an orbital shaker and the contents were shaken for 3 minutes to induce cell lysis.
6. The assay plates were incubated at room temperature for 10 minutes to stabilize the luminescent signal.
7. The luminescence signals were read and recorded with EnVision.
8. The geometric mean EC50 values were calculated from 10 points response dose with duplicates. […]

Row | Structure (SMILES) | EC50 [nM]
1 | N#C[C@H]1CCN(C(=O)c2nc(N3CCN(C(=O)N4N=CC[C@H]4c4cc(F)cc(F)c4)CC3)ncc2F)C1 [Compound 15, (3S)-1-(2-(4-(5-(3,5-difluorophenyl)-4,5-dihydro-1H-pyrazole-1-carbonyl)piperazin-1-yl)-5-fluoropyrimidine-4-carbonyl)pyrrolidine-3-carbonitrile] | 0.1 to 100
2 | COC1CN(C(=O)c2nc(N3CCN(C(=O)N4N=CC[C@H]4c4cncc(Cl)c4)CC3)ncc2Cl)C1 (stereo in doubt) [Compound 65, (5-chloro-2-(4-(5-(5-chloropyridin-3-yl)-4,5-dihydro-1H-pyrazole-1-carbonyl)piperazin-1-yl)pyrimidin-4-yl)(3-methoxyazetidin-1-yl)methanone] | 0.1 to 100
3 | C=C1CN(C(=O)c2nc(N3CCN(C(=O)N4N=CC[C@H]4c4cc(F)cc(F)c4)CC3)ncc2F)C1 [Compound 55, (S)-(5-(3,5-difluorophenyl)-4,5-dihydro-1H-pyrazol-1-yl)(4-(5-fluoro-4-(3-methyleneazetidine-1-carbonyl)pyrimidin-2-yl)piperazin-1-yl)methanone] | 0.1 to 100
4 | COC1CN(C(=O)c2nc(N3CCN(C(=O)N4N=CC[C@H]4c4cc(F)cc(C#N)c4)CC3)ncc2Cl)C1 [Compound 63, (S)-3-(1-(4-(5-chloro-4-(3-methoxyazetidine-1-carbonyl)pyrimidin-2-yl)piperazin-1-carbonyl)-4,5-dihydro-1H-pyrazol-5-yl)-5-fluorobenzonitrile] | 0.1 to 100
5 | N#CC1CN(C(=O)c2nc(N3CCN(C(=O)N4N=CC[C@H]4c4cc(F)cc(F)c4)CC3)ncc2F)C1 [Compound 25, (S)-1-(2-(4-(5-(3,5-difluorophenyl)-4,5-dihydro-1H-pyrazole-1-carbonyl)piperazin-1-yl)-5-fluoropyrimidine-4-carbonyl)azetidine-3-carbonitrile] | 0.1 to 100
6 | NC(=O)C1CN(C(=O)c2nc(N3CCN(C(=O)N4N=CC[C@H]4c4cc(F)cc(F)c4)CC3)ncc2F)C1 [Compound 30, (S)-1-(2-(4-(5-(3,5-difluorophenyl)-4,5-dihydro-1H-pyrazole-1-carbonyl)piperazin-1-yl)-5-fluoropyrimidine-4-carbonyl)azetidine-3-carboxamide] | 0.1 to 100
7 | O=C(c1nc(N2CCN(C(=O)N3N=CC[C@H]3c3cc(F)cc(F)c3)CC2)ncc1F)N1CC(CN2CCCC2)C1 [Compound 10, (5-(3,5-difluorophenyl)-4,5-dihydro-1H-pyrazol-1-yl)(4-(5-fluoro-4-(3-(pyrrolidin-1-ylmethyl)azetidine-1-carbonyl)pyrimidin-2-yl)piperazin-1-yl)methanone] | 0.1 to 100
8 | NC(=O)c1cc(N2CCN(C(=O)N3N=CC[C@H]3c3cc(F)cc(F)c3)CC2)c(F)cn1 [Compound 67, (S)-4-(4-(5-(3,5-difluorophenyl)-4,5-dihydro-1H-pyrazole-1-carbonyl)piperazin-1-yl)-5-fluoropicolinamide] | 100 to 1000
9 | CN1CCN(C(=O)c2nc(N3CCN(C(=O)N4N=CC[C@H]4c4cc(F)cc(F)c4)CC3)ncc2F)CC1 [Compound 19, (5-(3,5-difluorophenyl)-4,5-dihydro-1H-pyrazol-1-yl)(4-(5-fluoro-4-(4-methylpiperazine-1-carbonyl)pyrimidin-2-yl)piperazin-1-yl)methanone] | 0.1 to 100
10 | N#Cc1cc(F)cc([C@@H]2CC=NN2C(=O)N2CCN(c3ncc(F)c(C(=O)N4CC(OCC5CC5)C4)n3)CC2)c1 [Compound 59, (S)-3-(1-(4-(4-(3-(cyclopropylmethoxy)azetidine-1-carbonyl)-5-fluoropyrimidin-2-yl)piperazine-1-carbonyl)-4,5-dihydro-1H-pyrazol-5-yl)-5-fluorobenzo nitrile] | 0.1 to 100
11 | N#Cc1cncc([C@@H]2CC=NN2C(=O)N2CCN(c3nccc(C(N)=O)n3)CC2)c1 [Compound 43, (S)-2-(4-(5-(5-cyanopyridin-3-yl)-4,5-dihydro-1H-pyrazole-1-carbonyl)piperazin-1-yl)pyrimidine-4-carboxamide] | 100 to 1000
12 | O=C(c1nc(N2CCN(C(=O)N3N=CC[C@H]3c3cc(F)cc(F)c3)CC2)ncc1F)N1CC2(CCC2)C1 [Compound 29, (S)-(5-(3,5-difluorophenyl)-4,5-dihydro-1H-pyrazol-1-yl)(4-(5-fluoro-4-(2-azaspiro[3.3]heptane-2-carbonyl)pyrimidin-2-yl)piperazin-1-yl)methanone] | 0.1 to 100
13 | O=C(c1nc(N2CCN(C(=O)N3N=CC[C@H]3c3cc(F)cc(F)c3)CC2)ncc1F)N1CC=CC1 [Compound 61, (S)-(5-(3,5-difluorophenyl)-4,5-dihydro-1H-pyrazol-1-yl)(4-(4-(2,5-dihydro-1H-pyrrole-1-carbonyl)-5-fluoropyrimidin-2-yl)piperazin-1-yl)methanone] | 0.1 to 100
14 | O=C(NO)c1nc(N2CCN(C(=O)N3N=CC[C@H]3c3cc(F)cc(F)c3)CC2)ncc1F [Compound 2, (S)-2-(4-(5-(3,5-difluorophenyl)-4,5-dihydro-1H-pyrazole-1-carbonyl)piperazin-1-yl)-5-fluoro-N-hydroxypyrimidine-4-carboxamide] | 0.1 to 100
15 | CC(C)OC1CN(C(=O)c2nc(N3CCN(C(=O)N4N=CC[C@H]4c4cc(F)cc(F)c4)CC3)ncc2F)C1 [Compound 24, (S)-(5-(3,5-difluorophenyl)-4,5-dihydro-1H-pyrazol-1-yl)(4-(5-fluoro-4-(3-isopropoxyazetidine-1-carbonyl)pyrimidin-2-yl)piperazin-1-yl)methanone] | 0.1 to 100
16 | O=C(O)c1ccnc(N2CCN(C(=O)N3N=CC[C@H]3c3cc(F)cc(F)c3)CC2)n1 [Compound 44, (S)-2-(4-(5-(3,5-difluorophenyl)-4,5-dihydro-1H-pyrazole-1-carbonyl)piperazin-1-yl)pyrimidine-4-carboxylic acid] | 1000 to 10000
17 | O=C(NCCN1CCOCC1)c1ccnc(N2CCN(C(=O)N3N=CC[C@H]3c3cc(F)cc(F)c3)CC2)n1 [Compound 45, (S)-2-(4-(5-(3,5-difluorophenyl)-4,5-dihydro-1H-pyrazole-1-carbonyl)piperazin-1-yl)-N-(2-morpholinoethyl)pyrimidine-4-carboxamide] | 100 to 1000
18 | O=C(c1nc(N2CCN(C(=O)N3N=CC[C@H]3c3cc(F)cc(F)c3)CC2)ncc1F)N1CC(O)C1 [Compound 13, (5-(3,5-difluorophenyl)-4,5-dihydro-1H-pyrazol-1-yl)(4-(5-fluoro-4-(3-hydroxyazetidine-1-carbonyl)pyrimidin-2-yl)piperazin-1-yl)methanone] | 0.1 to 100
19 | CN(CC#N)C(=O)c1nc(N2CCN(C(=O)N3N=CC[C@H]3c3cc(F)cc(F)c3)CC2)ncc1F [Compound 34, (S)—N-(cyanomethyl)-2-(4-(5-(3,5-difluorophenyl)-4,5-dihydro-1H-pyrazole-1-carbonyl)piperazin-1-yl)-5-fluoro-N-methylpyrimidine-4-carboxamide] | 0.1 to 100
20 | CC(C)OC1CN(C(=O)c2ccnc(N3CCN(C(=O)N4N=CC[C@H]4c4cc(F)cc(F)c4)CC3)n2)C1 [Compound 37, (S)-(5-(3,5-difluorophenyl)-4,5-dihydro-1H-pyrazol-1-yl)(4-(4-(3-isopropoxyazetidine-1-carbonyl)pyrimidin-2-yl)piperazin-1-yl)methanone] | 0.1 to 100
